From patent publication US6894161B2, “Methods and compositions for photo-cross linking photoactive compounds to target tissue” (The University of British Columbia, priority 2001, dated 2005)

Assay: Cyclic voltammetry, redox potentials
Assay type: physicochemical
Conditions: dichloromethane at 22° C. versus Fc
Source text: Without being bound by theory, it is believed that the observed photochemical reaction with long wavelength light is not the result of intramolecular energy transfer from the porphyrin to the pyrazoline because estimations indicate that it would be an extremely endothermic process. With respect to the possibility that a photoinduced electron transfer may be responsible, it is first noted that there is no precedence for this reaction with pyrazolines. If the porphyrin and pyrazoline are considered as separate molecules, however, the estimation of the feasibility of an electron transfer process may be conducted as follows. Generally, a photochemical electron transfer occurs only when it is exergonic or <5 kcal mol^−1 endergonic (Eberson, L. Electron Transfer Reactions in Organic Chemistry, Springer-Verlag: Berlin Germany, 1987). The free energy change for a photoinduced electron transfer can be determined from the oxidation potential of the electron donor (E°D), the reduction potential of the electron acceptor (E°A) and the excited state energy of the sensitizer (E0,0), using the relationship ΔGET=23.06 kcal mol^−1[(E°D−E°A)−E0,0]−C; where C is a term that accounts for solvation. In order to estimate the feasibility of electron transfer using this relationship, the redox properties of the molecules must be known. The starting materials MePPP (18), the pyrazoline (19), and the photoproduct cyclopropane (20) have reduction and oxidation potentials as shown in Table 2.
The radical anions and dianions are therefore stable on the time scale of these experiments, with no chemistry occurring on addition of electrons to these molecules. If any chemical reactions were occurring from the radical anion or dianion, the CV's would be irreversible. […] On reduction, two consecutive electrons are accepted by the porphyrin macrocycle in each of 18, 19 and 20. The oxidations are also reversible; the only notable feature of the oxidation potentials is that 19 and 20 are somewhat easier to oxidize than MePPP. […]

**Q.** Which “Oxidation 1 (redox potential)” value does the source give for `C=Cc1c(C)c2cc3nc(c4c5[nH]c(cc6nc(cc1[nH]2)C(C)=C6CC)c(C)c5C(=O)C4)C(CCC(=O)OC)C3C` (stereo not drawn) [Compound 18, Methylpyropheophorbide] here?
**A.** The value was 0.61.

**Q.** And the “Reduction 1 (redox potential)” value?
**A.** The value was −1.47.

**Q.** What about the “Reduction 2 (redox potential)” value of the same compound?
**A.** The value was −1.73.
